# How the values were obtained:
# Type in all cases: cell-based
# [1] = system: −1 PRF signal of SARS-CoV-2
# SARS-CoV-2 = test: Antiviral plaque assay in Vero-E6 cells; settings: Severe acute respiratory syndrome coronavirus 2, Vero C1008, read-out: EC50 (95% CI), SARS-CoV-2 B.1.351 (Beta), Vero-E6
# B.1.1.7 SARS-CoV-2 = system: B.1.1.7 SARS-CoV-2
SMILES,-1PRF inhibition with mutated binding pocket [1],EC50 (SARS-CoV-2) [µM],change in the EC50s after 11 passages in presence of geneticin (B.1.1.7 SARS-CoV-2)
CCNCC1CCN(c2c(F)cc3c(=O)c(C(=O)O)cn(CC)c3c2F)C1 (stereo not shown) [Merafloxacin],significant loss of -1PRF inhibition,–,–
CN[C@@H]1[C@@H](O)[C@@H](O[C@@H]2[C@@H](O)[C@H](O[C@H]3O[C@H]([C@@H](C)O)[C@@H](O)[C@H](O)[C@H]3N)[C@@H](N)C[C@H]2N)OC[C@]1(C)O [Geneticin],significant loss of -1PRF inhibition,129,did not observe any significant change in the EC50s

# — article PMC9617636 (Antiviral Research, 2022)
